# According to patent US12285403B2, “A2-73 as a therapeutic for insomnia, anxiety and agitation” (Anavex Life Sciences Corp., priority 2016, dated 2025):
# Experiments:
# [1] = system: mild-to-moderate Alzheimer's disease patients; assay: ADCS-ADL (Activities of Daily Living), Phase 2a study; assay type: in vivo, human; conditions: for ADCS-ADL scores: through week 31, oral daily 10 mg to 50 mg, FIG. 2
# Description: Although the present invention calls for methods of treating insomnia, some primary sleep disorders, such as circadian rhythm disorders, advanced sleep phase disorder also termed sleep onset insomnia, mid-nocturnal insomnia, early morning insomnia, hyper insomnia, trouble staying asleep, jet lag, narcolepsy, non-24-hour sleep-wake syndrome, include insomnia as a component of the disorder. Thus, the term “insomnia” should be understood to also include the insomnia component of these disorders. • Aβ—Amyloid beta is abbreviated as Aβ. • AD—Alzheimer's disease is abbreviated as AD. • ADCS-ADL—Alzheimer's Disease Cooperative Study Activities of Daily Living Inventory is abbreviated as ADCS-ADL. • Cogstate tasks—Cogstate tasks refers to Cogstate cognitive tests (Cogstate Alzheimer's Battery) using visual and verbal stimuli to ensure assessment. These tests assess cognitive function in adults with mild cognitive impairment and clinically-diagnosed Alzheimer's disease. The test is culture-neutral and not limited by a subject or participant's level of education. A Cogstate battery comprises a number of individual tests—each designed to test a specific area of cognition. When a number of these individual tests are put together to form a test battery, a more complete picture of a person's cognitive state can be defined. • DPZ—Donepezil is abbreviated as DPZ. • EEG/ERP—EEG/ERP is a reference to ERP measured via EEG. • ERP—Event-related potential is abbreviated as ERP. • HAM-D—Hamilton Depression Rating Scale is abbreviated as HAM-D. • MCI—Mild cognitive impairment is abbreviated as MCI. • MMSE—MMSE refers to the Mini-Mental State Examination (MMSE) or Folstein test. This test is a 30-point questionnaire that is used extensively in clinical and research settings to measure cognitive impairment. • SWS—Slow-wave sleep is abbreviated as SWS. • WASO.—Waking after sleep onset is abbreviated WASO.
# Efficacy data is presented through 31 week from the randomized (into different treatment regimens) open-label study with ANAVEX 2-73 oral daily dosing ranging from 10 mg to 50 mg. […]
# [2] = system: mild-to-moderate Alzheimer's disease patients; assay: EEG/ERP (P300) target detection task, Phase 2a study; assay type: in vivo, human; conditions: for False Alarms / P300 Amplitude / Task Accuracy / Reaction Time: mean ± SEM; for False Alarms: baseline 3.4 ± 1.0, healthy control 1.1 ± 0.2; for P300 Amplitude: baseline 5.99 ± 0.58, healthy control 7.36 ± 0.39; for Task Accuracy: baseline 83.8 ± 3.8, healthy control 94.1 ± 1.1; for Reaction Time: baseline 559.0 ± 24.0, healthy control 458.6 ± 11.4
# Method: An event-related potential (ERP) is the measured brain response that is the direct result of a specific sensory, cognitive, or motor event. More formally, it is any stereotyped electrophysiological response to a stimulus. The study of the brain in this way provides a noninvasive means of evaluating brain functioning. ERPs are measured by means of electroencephalography (EEG). Particular efficacy data measurements addressed cognition and function. Cognitive measures include MMSE and Cogstate battery. Functional measures were ADCS-ADL. Supportive Biomarker Measurements include ERP (P300): fundamental measures of synaptic network performance and target engagement. ERP target detection task measures is a direct measure of attention, speed of brain processing, and simple functional performance. 2-73 Rescues Cognitive Effects on a Cellular Level on the subjects of the Phase 2a study. […] 2-73 effect on synaptic networks and effect on cognition and behavior at daily doses of 10 mg-50 mg is shown. ERP peak measures (P300) are shown. The P300 (P3) wave is an event related potential (ERP) component elicited in the process of decision making. It is considered to be an endogenous potential, as its occurrence links not to the physical attributes of a stimulus, but to a person's reaction to it. More specifically, the P300 is thought to reflect processes involved in stimulus evaluation or categorization. ERP target detection task is a direct measure of attention, speed of brain. processing, and simple behavioral performance. Psychometric measures (Cogstate) cognitive measures: Detection: processing speed (psychomotor function), Identification: reaction time (attention), One Back: working memory (cognition), One Card Learning: visual learning (visual memory), ISLT: verbal learning, ISLT-delay: verbal memory. Psychometric measures (MMSE): cognitive measures. Behavioral measures (ADCS-ADL): behavioral measures.
smiles,measurement,setting,value
"CN(C)CC1CCOC1(c1ccccc1)c1ccccc1.Cl (stereo not shown) [A2-73, tetrahydro-N,N-dimethyl-2,2-diphenyl-3-furanmethanamine hydrochloride]","ADCS-ADL score, ANAVEX 2-73 alone vs ANAVEX 2-73 with DPZ (donepezil)","[1]; over 31 weeks, exploratory analysis, FIG. 6",no notable difference
same,ADCS-ADL scores,[1]; hydrochloride,maintained at a constant level
same,ADCS-ADL scores,"[1]; listed as ANAVEX 2-73, hydrochloride",preserves average MMSE and ADCS-ADL scores
same,False Alarms,[2]; 5 Week,1.0 ± 0.5%
same,P300 Amplitude,"[2]; 5 Week, daily 10 mg-50 mg",7.09 ± 0.72 μV
same,Task Accuracy,[2]; 5 Week,92.6 ± 2.4%
same,Reaction Time,[2]; 5 Week,492.6 ± 23.8 ms
same,"All tested areas (ERP, Cogstate, MMSE, ADCS-ADL) vs starting baseline","[2]; 5 weeks, daily 10 mg-50 mg, FIG. 9",improvement
same,False Alarms,[2]; 17 Week,1.2 ± 0.9%
same,P300 Amplitude,[2]; 17 Week,6.38 ± 0.61 μV
same,Task Accuracy,[2]; 17 Week,92.2 ± 3.9%
same,Reaction Time,[2]; 17 Week,498.8 ± 24.8 ms
same,False Alarms,[2]; 31 Week,2.6 ± 1.2%
same,P300 Amplitude,[2]; 31 Week,5.93 ± 0.77 μV
same,Task Accuracy,[2]; 31 Week,88.1 ± 4.4%
same,Reaction Time,[2]; 31 Week,521.8 ± 28.1 ms
